According to patent US9187518B2, “Antiangiogenic brassinosteroid compounds” (CONSEJO NACIONAL DE INVESTIGACIONES CIENTIFICAS Y TECNICAS …, priority 2011, dated 2015):

Tests used:
HSV-1 [1] = assay: Anti-HSV-1 activity (multiplication and viral spreading) in human conjunctival and corneal cells; assay type: cell-based, Herpes simplex virus type 1
human corneal cells = assay: Cytotoxicity assay, corneal cells; assay type: cell-based
Procedure: (§1) Cell viability was determined as previously reported. The absorbance of each well was measured on a Eurogenetics MPR-A 4i microplate reader using a test wavelength of 570 nm and a reference wavelength of 630 nm. Results were expressed as a percentage of absorbance of treated cells with respect to untreated ones. The CC50 was defined as the concentration of compound that caused 50% reduction in cell viability.

NF-κB p65 subunit = assay: NF-κB p65 nuclear translocation in HSV-1 infected IOBA-NHC and HCLE cells (IFI); assay type: cell-based, human; settings: 40 μM
Procedure: IOBA-NHC and HCLE cells monolayers grown on coverslips in 24-well plates were infected with 0.2 ml of HSV-1 KOS (m.o.i.=1) and incubated 1 h at 37° C. Then, the inoculums were removed and cells were coated with a DMEM/F12 without SFB, for 24 h at 37° C.
After incubation, cells were fixed in methanol at −20° C. for 10 min, and processed for indirect immunofluorescence (IFI) with antibodies directed against the glycoprotein D (gD) of HSV-1 and/or the p65 subunit of NF-κB. […]
The images obtained with a 40× magnification were imported into NIH Image J 1.34s program (designed by Wayne Rasband, NIMH, Bethesda). […] We analyzed the total and nuclear fluorescence of the individual cells and a mean fluorescence density was obtained for each. To compare the distribution of fluorescence within the cell, the results were analyzed in a spreadsheet (Excel®). The total fluorescence intensity or nuclear density was calculated as the total or nuclear average per total or nuclear area, respectively. Then, we calculated the percentage of nuclear intensity or the percentage of nuclear intensity with respect to the total intensity for each cell. Non-stimulated cells were processed to establish a baseline of nuclear fluorescence (cut-off value). […]

HUVEC cells = assay: Capillary tube formation on a Matrigel; assay type: cell-based, human; settings: for reduction of tube formation vs untreated control: not statistically significant
Procedure: The formation of capillary tube like structures by HUVEC cells was analyzed on 24-well cell culture plates coated with an extracellular membrane matrix (Matrigel; BD Biosciences).
Matrigel was thawed at 4° C. Using precooled plates and tips, 100 μl/well of Matrigel was distributed and allowed to gelify at 37° C. for at least 30 min. Cells were seeded on the polymerized Matrigel (5 to 8×10^4 cells/well). The plate was incubated at 37° C., and tube formation was observed under a optic inverted microscope. Digital pictures were taken at different times with a camera. Tubular structures were quantified by manual counting of low power fields (25×) and inhibition percentage was expressed using untreated wells as 100%.
The formation of capillary tube-like structures by HUVEC cells was analyzed on 24-well cell culture plates coated with an extracellular membrane matrix (Matrigel; BD Biosciences). Matrigel was thawed at 4° C. Using precooled plates and tips, 100 μl/well of Matrigel was distributed and allowed to gelify at 37° C. for at least 30 min. Cells were seeded on the polymerized Matrigel (5 to 8×10^4 cells/well) in absence and presence of concentrations of 20 μM and 40 μM of each compound. The plate was incubated at 37° C., and tube formation was observed under an optic inverted microscope. Compound 1 was used as positive control.

LMM3 cells = assay: In vivo neovascular response induced by LMM3 cells in BALB/c mice; settings: intradermal, 5 days
Procedure: For the in vivo assay, 2×10^6 cells/mL were grown in 1 mL of complete medium in 6 wells plates. Compound 1 was incubated with LMM3 cells during 1 h and 6 hs. Also, a group of non-treated tumoral cells were grown and incubated. Then, all the cells from each group were washed with PBS, trypsinized and re-suspended in 0.9 ml of F12 medium without FBS.
Female BALB/c mice were randomized as follows:
• Sham N=4 • LMM3 N=4 • LMM3+Compound 1-1 hour treatment N=4 • LMM3+Compound 1-6 hours treatment N=4
Then, inoculation of 2×10^5 cells/0.1 mL was done intradermically in the mouse flanks. After 5 days the animals were sacrificed and photographs of the inoculation site were taken.
The vessels density was quantified in each animal and the results were analized by ANOVA followed by the Tukey test. Results were expressed as the median of vessels density (vessels/mm^2+/−ES).

HSV-1 [2] = assay: Murine model of HSV-1 corneal infection (herpetic stromal keratitis, HSK); assay type: in vivo, mice
human conjunctival cells = assay: Cytotoxicity assay, conjunctival cells; assay type: cell-based
Procedure: as §1

IL-6 = IL-6 secretion in epithelial cells (ELISA); assay type: cell-based, human
IL-8 = IL-8 secretion in epithelial cells (ELISA); assay type: cell-based, human
TNF-α = TNF-α secretion in LPS-activated macrophages; assay type: cell-based; settings: Macrophage, read-out: inhibitory concentration 50% (IC50), TNF-α secretion

CC[C@@H](C(C)C)[C@H](O)[C@@H](O)[C@@H](C)[C@H]1CC[C@H]2[C@@H]3CCC4=CC(=O)CC[C@]4(C)[C@H]3CC[C@]12C [Compound 1, (22S,23S)-22,23-dihydroxystigmast-4-en-3-one]
HSV-1 multiplication and viral spreading (HSV-1 [1]; human conjunctival cells): prevents | selectivity indices (SI) (HSV-1 [1]; human conjunctival cells): 13.2 | HSV-1 multiplication and viral spreading (HSV-1 [1]; human corneal cells): prevents | selectivity indices (SI) (HSV-1 [1]; human corneal cells): 9.3 | cytotoxicity (human corneal cells): no cytotoxicity | percentage of cells exhibiting NF-κB translocation to the nucleus (NF-κB p65 subunit; HCLE cells infected with HSV-1 (m.o.i.=1)): 5.7% | percentage of cells exhibiting NF-κB translocation to the nucleus (NF-κB p65 subunit; IOBA-NHC cells infected with HSV-1 (m.o.i.=1)): 22.2±1.2% | reduction of tube formation vs untreated control (HUVEC cells; 2.5 μM, 24 h): 17.3% | reduction of tube formation vs untreated control (HUVEC cells; 5 μM, 24 h): 25.9% | reduction of the tube-like network (HUVEC cells; 10 μM, 24 h): 59.8% | formation of capillary tube like structures (HUVEC cells; 20 μM and 40 μM, comparative assay): showed inhibitory activity | reduction of the tube-like network (HUVEC cells; 20 μM, 24 h): 90.7% | inhibition of tube formation (HUVEC cells; 50 μM, 24 h): complete inhibition | inhibition of tube formation (HUVEC cells; 100 μM, 24 h): complete inhibition | inhibition at 40 µM (HUVEC cells; Homo sapiens, HUVEC, 40 μM, 24 h): 93.9% | angiogenic response induced by LMM3 cells (vessel density) (LMM3 cells; LMM3 cells pre-incubated with 0.025 μg/μl during 1 h): significantly reduced | angiogenic response induced by LMM3 cells (vessel density) (LMM3 cells; LMM3 cells pre-incubated with 0.025 μg/μl during 6 h): significantly reduced | antiviral activity in vivo (HSV-1 [2]; HSV-1 infected mice): no antiviral activity in vivo | signs of keratitis (HSV-1 [2]; administered during the first 3 days after HSV-1 infection): significantly restrained | incidence and severity of HSK (HSV-1 [2]; murine model of HSV-1 corneal infection, in presence of replicative virus and after immune response triggered): significantly decreases | incidence and severity of neovascularization in infected corneas (HSV-1 [2]; treated from day 1 p.i. onwards, and at onset of disease, 6 days p.i. (data not shown)): decreased | cytotoxicity (human conjunctival cells): no cytotoxicity | IL-6 release (IL-6; HSV-1 infected HCLE cells, 40 μM, 24 h, vs infected control): did not elicit any change | IL-6 release (IL-6; HSV-1 infected IOBA-NHC cells, 40 μM, 24 h, vs infected control): did not elicit any change | IL-6 release (IL-6; uninfected treated cells, compound alone): did not induce IL-6 release by itself | IL-8 secretion (IL-8; HSV-1 infected HCLE cells, 40 μM, 24 h (untreated infected 142.9±0.5)): 163.6 ± 0.4 pg/mL | IL-8 secretion (IL-8; HSV-1 infected IOBA-NHC cells, 40 μM, 24 h (untreated infected 252±7.8)): 471.8 ± 30 pg/mL | IL-8 secretion (IL-8; uninfected HCLE cells, compound alone, vs basal level): considerably increased | IL-8 secretion (IL-8; uninfected IOBA-NHC cells, compound alone, vs basal level): considerably increased | IC50 (TNF-α): 7 µM
